Test systems include Bacillus subtilis; Candida albicans; Cryptococcus neoformans; Escherichia coli; Pseudomonas putida; Saccharomyces cerevisiae; Salmonella typhimurium; Serratia sp.; Staphylococcus aureus; Streptococcus mutans; Escherichia coli IP76-24; Acinetobacter baumannii; Enterobacter cloacae; Enterococcus faecium; Klebsiella aerogenes; Klebsiella oxytoca; Klebsiella pneumoniae; Proteus mirabilis; Pseudomonas aeruginosa; Serratia marcescens; Staphylococcus hominis; Streptococcus agalactiae.

Holding throughout (assay): ≥ marks a high value that may be exact or a test limit, other limits are often not marked, values filed in µg/mL are converted to µM
Experiment [1] has as its system Bacillus subtilis PCI 219.
Experiment [2] relates to Escherichia coli NIHJ JC-2.
In experiment [3] the test system is Pseudomonas aeruginosa U-31.
The subject of experiment [4] is Staphylococcus aureus FDA 209P.
In experiment [5] the test system is Aeromonas caviae IP67-16T.
Experiment [6] has as its system Aspergillus fumigatus IP1025-70.
In experiment [7] the test system is Aspergillus niger IP218-53.
The test system of experiment [8] is Candida albicans IP884-65.
In experiment [9] the test system is Cryptococcus neoformans IP960-67.
Experiment [10] deals with Enterococcus faecalis IP103214.
The test system of experiment [11] is Nocardia brasiliensis IP16-80.
Experiment [12] concerns Saccharomyces cerevisiae IP118079.
Experiment [13] concerns Staphylococcus aureus IP76-25.
Experiment [14] concerns Trichophyton simii IP1063-74.
In experiment [15] the test system is Acinetobacter baumannii ATCC 19606.
For experiment [16], the system named is Bacillus subtilis ATCC 21332.
Experiment [17] concerns Enterobacter cloacae ATCC 13047.
Experiment [18] relates to Enterococcus faecium ATCC 29212.
Experiment [19] has as its system Escherichia coli ATCC 25922.
Experiment [20] deals with Klebsiella aerogenes ATCC 49701.
Experiment [21] concerns Klebsiella oxytoca ATCC 43086.
In experiment [22] the test system is Klebsiella pneumoniae ATCC 700603.
In experiment [23] the test system is Proteus mirabilis ATCC 12453.
Experiment [24] has as its system Pseudomonas aeruginosa ATCC 15442.
In experiment [25] the test system is Raoultella ornithinolytica ATCC 31898.
Experiment [26] relates to Raoultella ornithinolytica.
The subject of experiment [27] is Serratia marcescens ATCC 14041.
In experiment [28] the test system is Staphylococcus aureus ATCC 29213.
Experiment [29] deals with Staphylococcus epidermidis ATCC 12228.
For experiment [30], the system named is Staphylococcus epidermidis.
Experiment [31] has as its system Staphylococcus hominis ATCC 29970.
Experiment [32] relates to Stenotrophomonas maltophilia ATCC 13637.
In experiment [33] the test system is Stenotrophomonas maltophilia.

≈ marks a conversion by molar mass, not a printed value. Where “and” joins values, the source holds several entries; their conditions need not be identical. Identical values can stand only once.

Take `CC[C@H](C)[C@H](NC(=O)[C@H](CO)NC(=O)[C@H](CCCCN)NC(=O)[C@H](Cc1ccccc1)NC(=O)[C@H](CCCCN)NC(=O)[C@H](CCCCN)NC(=O)[C@H](CC(C)C)NC(=O)[C@@H]1CCCN1C(=O)[C@@H](NC(=O)[C@H](CCCCN)NC(=O)[C@@H](NC(=O)[C@@H](NC(=O)[C@H](C)N)C(C)C)C(C)C)C(C)C)C(=O)N[C@@H](CCCN=C(N)N)C(=O)N[C@@H](CCC(=O)O)C(=O)N[C@H](C(=O)N[C@@H](CCSC)C(=O)N[C@@H](CCCCN)C(=O)N[C@@H](CCC(=O)O)C(=O)N[C@@H](CCCCN)C(=O)NCC(=O)N[C@@H](CC(C)C)C(=O)N[C@@H](CC(C)C)C(=O)N[C@@H](CCC(=O)O)C(=O)N[C@@H](CC(=O)O)C(=O)N[C@@H](Cc1ccccc1)C(=O)O)[C@@H](C)O` [AVVKVPLKKFKSIRETMKEKGLLEDF]: the MIC in the experiment on Bacillus subtilis was 16.5 µM (≈ 50 µg/mL); against Candida albicans, 33 µM (≈ 100 µg/mL); with Cryptococcus neoformans, no less than 33 µM; in the experiment with Escherichia coli, 16.5 µM (≈ 50 µg/mL); in the experiment on Pseudomonas putida it was no less than 33 µM; in the experiment with Saccharomyces cerevisiae, 3.95 µM (≈ 12 µg/mL). Also, the MIC in the experiment on Salmonella typhimurium is 6.59 µM (≈ 20 µg/mL); in the experiment with Serratia sp. it was no less than 65.9 µM; in the experiment with Staphylococcus aureus, 33 µM (≈ 100 µg/mL); against Streptococcus mutans it was 16.5 µM (≈ 50 µg/mL).

In the case of `CC(C)C[C@H](NC(=O)[C@H](CCCCN)NC(=O)[C@H](CCCCN)NC(=O)[C@H](CCCCN)NC(=O)[C@H](CC(C)C)NC(=O)[C@H](CCCCN)NC(=O)[C@H](CCCCN)NC(=O)[C@H](Cc1c[nH]c2ccccc12)NC(=O)[C@H](CCCCN)NC(=O)[C@H](CCCCN)NC(=O)[C@H](CCCCN)NC(=O)[C@H](CC(C)C)NC(=O)[C@H](CCCCN)NC(=O)[C@H](CCCCN)NC(=O)[C@H](CC(C)C)NC(=O)[C@H](CCCCN)NC(=O)[C@@H](N)CCCCN)C(=O)N[C@@H](CCCCN)C(=O)O` [KKLKKLKKKWKKLKKKLK], the minimum inhibitory concentration (MIC) in experiment [1], in experiment [2], in [3] and in experiment [4] was no less than 43 µM each time.

Turning to `CC[C@H](C)[C@H](NC(=O)CNC(=O)[C@H](CCCCN)NC(=O)[C@H](CC(C)C)NC(=O)[C@H](CCSC)NC(=O)[C@H](CC(N)=O)NC(=O)[C@H](CCCCN)NC(=O)[C@H](Cc1c[nH]c2ccccc12)NC(=O)[C@H](CC(C)C)NC(=O)[C@H](C)N)C(=O)NCC(=O)N[C@@H](CCCCN)C(N)=O` [ALWKNMLKGIGK], the MIC in experiment [5] is 6 µM (≈ 8.15 µg/mL); in experiment [6], no less than 90 µM; in experiment [7], no less than 90 µM; in experiment [8] it was no less than 40 µM; in [9], 6 µM (≈ 8.15 µg/mL); in experiment [10], 6 µM (≈ 8.15 µg/mL). The minimum inhibitory concentration (MIC) in the experiment on Escherichia coli IP76-24 was 6 µM (≈ 8.15 µg/mL); in [11] it was no less than 150 µM; in [12], 20 µM (≈ 27.2 µg/mL); in experiment [13], no less than 150 µM; in experiment [14] it was no less than 70 µM.

In the case of `CC[C@H](C)[C@H](NC(=O)[C@@H](NC(=O)[C@@H]1CCCN1C(=O)[C@@H](NC(=O)[C@@H]1CCCN1C(=O)[C@H](CCCCN)NC(=O)[C@H](CCCCN)NC(=O)[C@H](CO)NC(=O)CN)C(C)C)[C@@H](C)CC)C(=O)N[C@@H](Cc1ccc(O)cc1)C(=O)N[C@H]1CSSC[C@@H](C(=O)N[C@@H](CCC(N)=O)C(=O)N[C@@H](CCCN=C(N)N)C(=O)N[C@@H](CCSC)C(=O)O)NC(=O)[C@H](CCCCN)NC(=O)CNC(=O)[C@H](CO)NC(=O)[C@H](CCCN=C(N)N)NC(=O)[C@H](CCCN=C(N)N)NC(=O)[C@H](CC(N)=O)NC1=O` [GSKKPVPIIYCNRRSGKCQRM], the MIC in experiment [15] was greater than 52.9 µM; against Acinetobacter baumannii, no less than 52.9 µM; in experiment [16], 3.3 µM (≈ 7.99 µg/mL); in [17] it was 3.3 µM (≈ 7.99 µg/mL); in the experiment on Enterobacter cloacae, 4.67 µM (≈ 11.3 µg/mL); in [18], 26.4 µM (≈ 63.9 µg/mL). The minimal inhibitory concentration (MIC) is no less than 37.4 µM with Enterococcus faecium; 2.34 µM and 1.6 µM in experiment [19]; 2.34 µM (≈ 5.65 µg/mL) in the experiment on Escherichia coli; 1.65 µM (≈ 4 µg/mL) in [20]; 1.65 µM (≈ 4 µg/mL) in the experiment on Klebsiella aerogenes; 3.3 µM (≈ 7.99 µg/mL) in experiment [21]. Besides, the MIC in the experiment with Klebsiella oxytoca was 3.3 µM (≈ 7.99 µg/mL); in experiment [22] it was 3.3 µM (≈ 7.99 µg/mL); with Klebsiella pneumoniae it was 2.34 µM (≈ 5.65 µg/mL); in [23], no less than 52.9 µM; against Proteus mirabilis, no less than 52.9 µM; in [24], no less than 52.9 µM. In addition, the minimal inhibitory concentration (MIC) was greater than 52.9 µM against Pseudomonas aeruginosa; 3.3 µM (≈ 7.99 µg/mL) in [25]; 3.3 µM (≈ 7.99 µg/mL) in experiment [26]; no less than 52.9 µM in [27]; no less than 52.9 µM against Serratia marcescens; greater than 52.9 µM in [28]. For the same molecule, the MIC against Staphylococcus aureus was greater than 52.9 µM; in experiment [29] it was greater than 52.9 µM; in experiment [30] it was no less than 52.9 µM; in [31], no less than 52.9 µM; against Staphylococcus hominis, no less than 52.9 µM; in [32], no less than 52.9 µM. Further, the MIC (in experiment [33]; with Streptococcus agalactiae) was no less than 52.9 µM in each case.

As a reminder, the MIC is the lowest concentration that inhibits growth of the organism. A low value points to a more susceptible organism.

(Values after DBAASP.)
